Assay results as given in patent US8980938B2, “CXCR2 inhibitors” (Sanofi, priority 2006, dated 2015).

Molecular target: human CXCR2 (Homo sapiens (Human), UniProt P25025)
Assay: CXCR2 inhibition: calcium fluorescence assay (FLIPR) with chemokine IL-8
Format: cell-based
Conditions: CHO-K1 cells stably transfected with human CXCR2 and Gα16, Fluo-4 calcium response
Excerpt: Determination of CXCR2 Inhibition: Calcium Fluorescence Assay (FLIPR)
The assay is based on the detection of intracellular calcium changes detected by the selective, calcium-chelating dye, Fluo-4 (Molecular Probes). A large fluorescence intensity increase is observed upon calcium association with Fluo-4. The dye is delivered to the cell interior using an acetoxymethylester form of Fluo-4, where the intracellular esterase activity results in the charged species being released and trapped within the cytoplasm of the cell. […] By co-expressing the CXCR2 receptor and the promiscuous Gα16 protein, activation of this chemokine receptor is directed into this phospholipase C cascade resulting in intracellular calcium mobilization.
The CHO-K1 cells stably transfected with human CXCR2 and the promiscuous Gα16 protein are maintained in a log phase of growth at 37° C. and 5% CO2 in the following media: Iscove's, 10% FBS, 1X Penicillin-Streptomycin, 400 μg/ml G418 and 350 μg/ml Zeocin. Approximately 24-48 hours prior to the assay, 20,000-30,000 cells/well are plated onto a 96-well black/clear bottomed assay plate (Becton Dickinson) with a well volume of 180 μl. For dye loading the culture medium is carefully removed and replaced by 100 μl/well dye solution (4 μM Fluo-4 in 135 mM NaCl, 5 mM KCl, 1 mM magnesium sulphate, 5 mM glucose, 20 mM hepes, 2.5 mM probenecid; pH 7.4). Cells are incubated for 1 h at 37° C., and then washed 3× with buffer. After washing 90 μl buffer/well are left. Increasing concentrations of compound is added in 45 μl buffer (4× concentrated) followed by 10 min incubation at 37° C. Then the chemokine (10-100 nM) is applied in 45 μl buffer (4× concentrated) and the measurement is performed for 2 min. The IC50 value of a compound can be determined by calculation of % inhibition of total calcium response to the chemokine.
CXCR2 Inhibition with Chemokine IL-8 for Selected Example Compounds: […]

human CXCR2, sequence (P25025 whole entry): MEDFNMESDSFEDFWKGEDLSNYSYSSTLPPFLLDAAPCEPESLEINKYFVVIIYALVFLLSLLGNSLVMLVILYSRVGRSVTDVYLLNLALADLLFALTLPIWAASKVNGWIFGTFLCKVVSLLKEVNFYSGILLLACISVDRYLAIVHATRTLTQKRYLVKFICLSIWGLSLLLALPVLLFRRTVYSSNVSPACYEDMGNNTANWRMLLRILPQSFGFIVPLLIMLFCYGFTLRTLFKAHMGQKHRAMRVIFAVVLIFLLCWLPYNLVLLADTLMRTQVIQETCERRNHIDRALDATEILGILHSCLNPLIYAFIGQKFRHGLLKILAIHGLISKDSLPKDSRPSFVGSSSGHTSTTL

| SMILES | IC50 [nM] |
| --- | --- |
| CC(C)(NC(=O)c1ccc2c(c1OCCCOc1ccccc1)CCCC2)C(=O)O [Example 7, 2-Methyl-2-{[1-(3-phenoxy-propoxy)-5,6,7,8-tetrahydro-naphthalene-2-carbonyl]-amino}-propionic acid] | 2100 |
| CC(C)(NC(=O)c1ccc2c(c1OCCOc1ccccc1)CCCC2)C(=O)O [Example 3, 2-Methyl-2-{[1-(2-phenoxy-ethoxy)-5,6,7,8-tetrahydro-naphthalene-2-carbonyl]-amino}-propionic acid] | 1000 |
| CC(C)(NC(=O)c1ccc2c(c1OCCC1CCCCC1)CCCC2)C(=O)O [Example 2, 2-{[1-(2-Cyclohexyl-ethoxy)-5,6,7,8-tetrahydro-naphthalene-2-carbonyl]-amino}-2-methyl-propionic acid] | 1400 |
| CC(C)(NC(=O)c1ccc2c(c1OCCCCc1ccccc1)CCCC2)C(=O)O [Example 5, 2-Methyl-2-{[1-(4-phenyl-butoxy)-5,6,7,8-tetrahydro-naphthalene-2-carbonyl]-amino}-propionic acid] | 2000 |

Next, values leading:

| IC50 [nM] | SMILES |
| --- | --- |
| 1700 | CC(C)(NC(=O)c1ccc2sccc2c1OCCOc1ccccc1)C(=O)O [Example 12, 2-Methyl-2-{[4-(2-phenoxy-ethoxy)-benzo[b]thiophene-5-carbonyl]-amino}-propionic acid] |
| 800 | CC(C)(NC(=O)c1ccc2ccsc2c1OCCOc1ccc(F)cc1)C(=O)O [Example 11, 2-({7-[2-(4-Fluoro-phenoxy)-ethoxy]-benzo[b]thiophene-6-carbonyl}-amino)-2-methyl-propionic acid] |
| 600 | CC(C)(NC(=O)c1ccc2ccsc2c1OCCCc1ccccc1)C(=O)O [Example 8, 2-Methyl-2-{[7-(3-phenyl-propoxy)-benzo[b]thiophene-6-carbonyl]-amino}-propionic acid] |
